Experimental data from paper PMC12670405, “Second-Generation AURKA-Targeting PROTACs: Structural Optimization toward in Vivo Degradation in Neuroblastoma” (Journal of Medicinal Chemistry, 2025).

How the values were obtained:
Assay in all cases: KINOMEscan scanMAX
Assay type in all cases: binding
Settings in all cases: read-out: Percent Control
[1] = target: T1, RSK2(Kin.Dom.1-N-terminal) (Homo sapiens, UniProt P51812)
T1 construct: RSK2(Kin.Dom.1-N-terminal); purchased Eurofins Discovery (DiscoverX KINOMEscan scanMAX)
Experimental: (§1) The kinome-wide binding assay was performed by Eurofins Discovery using the scanMAX screening platform. More information can be found on the Eurofins Discovery Web site.

[2] = target: T2, TAK1 (Homo sapiens, UniProt O43318)
T2 construct: purchased Eurofins Discovery (DiscoverX KINOMEscan scanMAX)
Experimental: as §1

[3] = target: T3, TGFBR2 (Homo sapiens, UniProt P37173)
T3 construct: purchased Eurofins Discovery (DiscoverX KINOMEscan scanMAX)
Experimental: as §1

[4] = target: T4, JNK1 (Homo sapiens, UniProt P45983)
T4 construct: purchased Eurofins Discovery (DiscoverX KINOMEscan scanMAX)
Experimental: as §1

[5] = target: T5, WEE1 (Homo sapiens, UniProt P30291)
T5 construct: purchased Eurofins Discovery (DiscoverX KINOMEscan scanMAX)
Experimental: as §1

[6] = target: T6, SLK (Homo sapiens, UniProt Q9H2G2)
T6 construct: purchased Eurofins Discovery (DiscoverX KINOMEscan scanMAX)
Experimental: as §1

[7] = target: T7, NEK6 (Homo sapiens, UniProt Q9HC98)
T7 construct: purchased Eurofins Discovery (DiscoverX KINOMEscan scanMAX)
Experimental: as §1

[8] = target: T8, PIK3CA(E545K) (Homo sapiens, UniProt P42336, E545K)
T8 construct: purchased Eurofins Discovery (DiscoverX KINOMEscan scanMAX)
Experimental: as §1

[9] = target: T9, ADCK3 (Homo sapiens, UniProt Q8NI60)
T9 construct: purchased Eurofins Discovery (DiscoverX KINOMEscan scanMAX)
Experimental: as §1

[10] = target: T10, HPK1 (Homo sapiens, UniProt Q92918)
T10 construct: purchased Eurofins Discovery (DiscoverX KINOMEscan scanMAX)
Experimental: as §1

[11] = target: T11, TBK1 (Homo sapiens, UniProt Q9UHD2)
T11 construct: purchased Eurofins Discovery (DiscoverX KINOMEscan scanMAX)
Experimental: as §1

[12] = target: T12, MLK1 (Homo sapiens, UniProt P80192)
T12 construct: purchased Eurofins Discovery (DiscoverX KINOMEscan scanMAX)
Experimental: as §1

[13] = target: T13, BRAF (Homo sapiens, UniProt P15056)
T13 construct: purchased Eurofins Discovery (DiscoverX KINOMEscan scanMAX)
Experimental: as §1

[14] = target: T14, PRKD1 (Homo sapiens, UniProt Q15139)
T14 construct: purchased Eurofins Discovery (DiscoverX KINOMEscan scanMAX)
Experimental: as §1

[15] = target: T15, FLT3(D835H) (Homo sapiens, UniProt P36888, D835H)
T15 construct: purchased Eurofins Discovery (DiscoverX KINOMEscan scanMAX)
Experimental: as §1

[16] = target: T16, EGFR(T790M) (Homo sapiens, UniProt P00533, T790M)
T16 construct: purchased Eurofins Discovery (DiscoverX KINOMEscan scanMAX)
Experimental: as §1

[17] = target: T17, FLT3-autoinhibited (Homo sapiens, UniProt P36888)
T17 construct: purchased Eurofins Discovery (DiscoverX KINOMEscan scanMAX)
Experimental: as §1

[18] = target: T18, CLK3 (Homo sapiens, UniProt P49761)
T18 construct: purchased Eurofins Discovery (DiscoverX KINOMEscan scanMAX)
Experimental: as §1

[19] = target: T19, BMX (Homo sapiens, UniProt P51813)
T19 construct: purchased Eurofins Discovery (DiscoverX KINOMEscan scanMAX)
Experimental: as §1

[20] = target: T20, DAPK1 (Homo sapiens, UniProt P53355)
T20 construct: purchased Eurofins Discovery (DiscoverX KINOMEscan scanMAX)
Experimental: as §1

[21] = target: T21, PAK4 (Homo sapiens, UniProt O96013)
T21 construct: purchased Eurofins Discovery (DiscoverX KINOMEscan scanMAX)
Experimental: as §1

[22] = target: T22, CDKL2 (Homo sapiens, UniProt Q92772)
T22 construct: purchased Eurofins Discovery (DiscoverX KINOMEscan scanMAX)
Experimental: as §1

[23] = target: T23, BRAF(V600E) (Homo sapiens, UniProt P15056, V600E)
T23 construct: purchased Eurofins Discovery (DiscoverX KINOMEscan scanMAX)
Experimental: as §1

[24] = target: T24, RSK2(Kin.Dom.2-C-terminal) (Homo sapiens, UniProt P51812)
T24 construct: RSK2(Kin.Dom.2-C-terminal); purchased Eurofins Discovery (DiscoverX KINOMEscan scanMAX)
Experimental: as §1

[25] = target: T25, ABL1(F317I)-phosphorylated (Homo sapiens, UniProt P00519, F317I)
T25 construct: purchased Eurofins Discovery (DiscoverX KINOMEscan scanMAX)
Experimental: as §1

[26] = target: T26, FLT3(D835V) (Homo sapiens, UniProt P36888, D835V)
T26 construct: purchased Eurofins Discovery (DiscoverX KINOMEscan scanMAX)
Experimental: as §1

[27] = target: T27, BMPR1B (Homo sapiens, UniProt O00238)
T27 construct: purchased Eurofins Discovery (DiscoverX KINOMEscan scanMAX)
Experimental: as §1

[28] = target: T28, TAOK2 (Homo sapiens, UniProt Q9UL54)
T28 construct: purchased Eurofins Discovery (DiscoverX KINOMEscan scanMAX)
Experimental: as §1

[29] = target: T29, AMPK-alpha1 (Homo sapiens, UniProt Q13131)
T29 construct: purchased Eurofins Discovery (DiscoverX KINOMEscan scanMAX)
Experimental: as §1

[30] = target: T30, NEK7 (Homo sapiens, UniProt Q8TDX7)
T30 construct: purchased Eurofins Discovery (DiscoverX KINOMEscan scanMAX)
Experimental: as §1

[31] = target: T31, SGK2 (Homo sapiens, UniProt Q9HBY8)
T31 construct: purchased Eurofins Discovery (DiscoverX KINOMEscan scanMAX)
Experimental: as §1

[32] = target: T32, YSK1 (Homo sapiens, UniProt O00506)
T32 construct: purchased Eurofins Discovery (DiscoverX KINOMEscan scanMAX)
Experimental: as §1

[33] = target: T33, GAK (Homo sapiens, UniProt O14976)
T33 construct: purchased Eurofins Discovery (DiscoverX KINOMEscan scanMAX)
Experimental: as §1

T10 sequence (Q92918 whole entry): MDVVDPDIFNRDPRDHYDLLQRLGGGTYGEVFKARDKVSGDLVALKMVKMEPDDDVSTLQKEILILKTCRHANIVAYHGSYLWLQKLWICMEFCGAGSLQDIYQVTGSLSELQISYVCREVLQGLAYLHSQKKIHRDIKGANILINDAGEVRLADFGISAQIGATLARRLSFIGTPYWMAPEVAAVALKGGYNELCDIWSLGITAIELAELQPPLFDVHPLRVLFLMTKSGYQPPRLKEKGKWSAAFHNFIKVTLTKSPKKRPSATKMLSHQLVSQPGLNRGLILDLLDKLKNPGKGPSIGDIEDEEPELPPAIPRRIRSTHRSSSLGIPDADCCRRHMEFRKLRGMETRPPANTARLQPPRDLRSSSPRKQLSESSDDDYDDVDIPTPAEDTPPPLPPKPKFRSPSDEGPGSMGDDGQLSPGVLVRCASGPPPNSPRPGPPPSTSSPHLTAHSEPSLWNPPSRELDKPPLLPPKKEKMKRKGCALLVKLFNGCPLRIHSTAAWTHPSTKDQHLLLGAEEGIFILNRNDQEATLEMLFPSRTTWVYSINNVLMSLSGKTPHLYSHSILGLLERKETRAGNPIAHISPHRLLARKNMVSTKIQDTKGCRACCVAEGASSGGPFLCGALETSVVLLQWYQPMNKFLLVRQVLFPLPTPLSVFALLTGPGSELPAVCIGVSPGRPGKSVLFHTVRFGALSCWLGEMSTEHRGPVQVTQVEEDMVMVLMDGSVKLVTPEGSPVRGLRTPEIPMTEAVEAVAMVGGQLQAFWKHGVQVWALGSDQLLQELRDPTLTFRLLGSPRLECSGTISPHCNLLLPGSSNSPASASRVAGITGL
T3 sequence (P37173 23-567): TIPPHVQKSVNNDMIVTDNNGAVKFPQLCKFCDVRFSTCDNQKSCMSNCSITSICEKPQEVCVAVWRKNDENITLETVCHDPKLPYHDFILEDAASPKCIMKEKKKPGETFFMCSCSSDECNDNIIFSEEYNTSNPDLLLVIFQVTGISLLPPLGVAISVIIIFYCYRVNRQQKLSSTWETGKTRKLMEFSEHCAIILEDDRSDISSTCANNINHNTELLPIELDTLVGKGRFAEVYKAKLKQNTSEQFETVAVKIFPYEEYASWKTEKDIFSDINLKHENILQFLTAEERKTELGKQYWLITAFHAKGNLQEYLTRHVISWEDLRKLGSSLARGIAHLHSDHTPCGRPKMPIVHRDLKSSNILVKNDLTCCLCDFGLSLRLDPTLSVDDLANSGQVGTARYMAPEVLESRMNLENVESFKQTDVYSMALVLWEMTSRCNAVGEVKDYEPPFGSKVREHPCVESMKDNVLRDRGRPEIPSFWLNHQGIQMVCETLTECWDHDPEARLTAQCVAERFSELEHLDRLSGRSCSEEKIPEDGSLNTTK
T13 sequence (P15056 whole entry): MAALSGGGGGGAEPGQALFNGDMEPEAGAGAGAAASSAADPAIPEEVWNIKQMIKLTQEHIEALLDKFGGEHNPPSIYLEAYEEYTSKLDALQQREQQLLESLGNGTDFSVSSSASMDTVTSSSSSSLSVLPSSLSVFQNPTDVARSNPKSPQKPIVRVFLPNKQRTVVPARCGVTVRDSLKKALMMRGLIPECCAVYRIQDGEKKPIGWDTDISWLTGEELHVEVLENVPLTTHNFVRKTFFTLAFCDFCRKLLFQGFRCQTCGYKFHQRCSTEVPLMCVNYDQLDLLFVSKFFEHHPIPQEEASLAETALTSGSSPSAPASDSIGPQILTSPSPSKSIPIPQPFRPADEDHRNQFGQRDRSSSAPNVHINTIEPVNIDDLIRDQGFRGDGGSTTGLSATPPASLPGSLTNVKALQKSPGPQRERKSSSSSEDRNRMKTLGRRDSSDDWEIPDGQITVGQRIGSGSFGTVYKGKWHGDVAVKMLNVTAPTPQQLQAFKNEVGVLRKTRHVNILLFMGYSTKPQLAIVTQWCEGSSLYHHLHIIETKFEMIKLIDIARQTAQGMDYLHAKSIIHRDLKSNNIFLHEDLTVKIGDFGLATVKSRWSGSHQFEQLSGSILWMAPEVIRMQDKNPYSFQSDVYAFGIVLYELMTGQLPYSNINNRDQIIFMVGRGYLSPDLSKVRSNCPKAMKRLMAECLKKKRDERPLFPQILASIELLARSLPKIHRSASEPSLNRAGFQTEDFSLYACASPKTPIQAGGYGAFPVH
T8 sequence (P42336 whole entry E545K): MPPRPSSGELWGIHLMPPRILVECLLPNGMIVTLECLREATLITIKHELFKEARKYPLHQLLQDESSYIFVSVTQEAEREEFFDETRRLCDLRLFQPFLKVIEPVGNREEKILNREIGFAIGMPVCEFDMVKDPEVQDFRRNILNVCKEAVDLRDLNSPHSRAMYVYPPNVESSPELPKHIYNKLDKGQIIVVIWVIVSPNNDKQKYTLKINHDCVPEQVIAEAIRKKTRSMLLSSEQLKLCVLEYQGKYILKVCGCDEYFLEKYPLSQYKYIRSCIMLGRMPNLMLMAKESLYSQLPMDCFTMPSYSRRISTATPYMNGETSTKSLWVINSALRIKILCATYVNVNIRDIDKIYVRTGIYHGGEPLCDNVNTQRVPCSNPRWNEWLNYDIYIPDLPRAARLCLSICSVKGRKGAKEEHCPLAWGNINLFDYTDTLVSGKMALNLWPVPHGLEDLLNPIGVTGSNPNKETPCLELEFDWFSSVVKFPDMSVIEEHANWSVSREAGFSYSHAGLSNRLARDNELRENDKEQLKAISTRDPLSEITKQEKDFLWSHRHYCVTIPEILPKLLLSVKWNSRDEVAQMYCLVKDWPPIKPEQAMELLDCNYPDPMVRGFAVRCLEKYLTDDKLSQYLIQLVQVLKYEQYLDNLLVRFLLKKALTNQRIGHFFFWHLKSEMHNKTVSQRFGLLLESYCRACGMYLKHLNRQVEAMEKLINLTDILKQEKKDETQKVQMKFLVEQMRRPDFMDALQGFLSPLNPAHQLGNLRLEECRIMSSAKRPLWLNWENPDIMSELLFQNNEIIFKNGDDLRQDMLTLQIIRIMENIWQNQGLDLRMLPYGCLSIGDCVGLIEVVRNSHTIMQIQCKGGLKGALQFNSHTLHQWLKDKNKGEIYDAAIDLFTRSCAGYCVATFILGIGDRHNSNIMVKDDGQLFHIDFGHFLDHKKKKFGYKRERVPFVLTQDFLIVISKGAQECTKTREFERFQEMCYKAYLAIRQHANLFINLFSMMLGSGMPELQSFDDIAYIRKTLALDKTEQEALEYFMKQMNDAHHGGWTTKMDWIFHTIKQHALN
T11 sequence (Q9UHD2 whole entry): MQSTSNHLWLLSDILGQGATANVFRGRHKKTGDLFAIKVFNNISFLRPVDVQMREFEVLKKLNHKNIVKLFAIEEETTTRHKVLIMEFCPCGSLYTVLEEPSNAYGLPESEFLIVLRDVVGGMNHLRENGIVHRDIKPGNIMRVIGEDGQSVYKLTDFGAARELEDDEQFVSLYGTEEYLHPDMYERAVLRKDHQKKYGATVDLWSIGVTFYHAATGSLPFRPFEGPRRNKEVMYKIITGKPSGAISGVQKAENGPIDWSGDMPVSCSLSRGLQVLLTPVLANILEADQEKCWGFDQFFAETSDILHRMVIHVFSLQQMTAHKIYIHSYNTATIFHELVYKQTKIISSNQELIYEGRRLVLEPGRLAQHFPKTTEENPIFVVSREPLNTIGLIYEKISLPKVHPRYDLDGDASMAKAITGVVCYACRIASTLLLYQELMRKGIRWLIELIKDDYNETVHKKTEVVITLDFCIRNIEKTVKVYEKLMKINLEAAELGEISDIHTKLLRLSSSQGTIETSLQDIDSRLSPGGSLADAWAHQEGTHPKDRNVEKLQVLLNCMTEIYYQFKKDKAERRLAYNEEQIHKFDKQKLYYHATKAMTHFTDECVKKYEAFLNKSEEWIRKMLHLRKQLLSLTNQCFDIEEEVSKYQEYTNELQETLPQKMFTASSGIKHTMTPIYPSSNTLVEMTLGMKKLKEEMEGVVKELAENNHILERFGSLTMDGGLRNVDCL
T12 sequence (P80192 whole entry): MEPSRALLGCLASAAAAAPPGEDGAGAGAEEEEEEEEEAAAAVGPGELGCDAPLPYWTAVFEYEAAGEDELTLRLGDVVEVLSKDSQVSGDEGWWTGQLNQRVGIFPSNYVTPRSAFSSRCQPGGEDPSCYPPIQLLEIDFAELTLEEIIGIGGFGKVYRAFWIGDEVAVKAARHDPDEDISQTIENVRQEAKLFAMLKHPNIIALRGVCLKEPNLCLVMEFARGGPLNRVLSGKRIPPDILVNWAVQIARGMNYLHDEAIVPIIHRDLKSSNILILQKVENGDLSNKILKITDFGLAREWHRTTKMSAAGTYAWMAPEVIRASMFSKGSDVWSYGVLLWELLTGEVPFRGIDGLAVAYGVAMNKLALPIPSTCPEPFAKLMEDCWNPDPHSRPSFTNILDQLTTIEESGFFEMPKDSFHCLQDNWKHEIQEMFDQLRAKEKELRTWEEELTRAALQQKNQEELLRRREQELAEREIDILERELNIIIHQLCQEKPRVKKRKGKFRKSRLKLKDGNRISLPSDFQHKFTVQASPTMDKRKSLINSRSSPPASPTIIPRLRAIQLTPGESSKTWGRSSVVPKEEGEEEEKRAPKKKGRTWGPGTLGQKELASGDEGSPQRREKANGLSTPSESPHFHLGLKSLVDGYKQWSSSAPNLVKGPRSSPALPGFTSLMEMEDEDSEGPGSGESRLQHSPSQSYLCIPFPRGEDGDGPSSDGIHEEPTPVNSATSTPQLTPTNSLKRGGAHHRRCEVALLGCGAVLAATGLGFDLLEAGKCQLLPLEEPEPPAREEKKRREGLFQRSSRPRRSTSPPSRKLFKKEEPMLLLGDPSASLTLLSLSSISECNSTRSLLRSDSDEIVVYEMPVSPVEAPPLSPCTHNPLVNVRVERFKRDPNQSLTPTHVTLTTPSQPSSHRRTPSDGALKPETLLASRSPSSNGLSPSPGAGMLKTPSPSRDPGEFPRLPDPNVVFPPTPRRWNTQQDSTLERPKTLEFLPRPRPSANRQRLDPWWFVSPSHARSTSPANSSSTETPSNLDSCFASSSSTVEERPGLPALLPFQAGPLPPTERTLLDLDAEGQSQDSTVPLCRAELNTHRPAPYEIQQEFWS
T23 sequence (P15056 whole entry V600E): as the sequence (P15056 whole entry) above, with V600E counted along it

## Cc1cc(Nc2ccc(F)c(CC3(C(=O)N4CCC(F)(CN5CCN(c6ccc(N7CCC(=O)NC7=O)cn6)CC5)CC4)CCN(Cc4cccc(Cl)c4F)CC3)n2)n[nH]1 [SK5527]
[1]; 100 nM
  remaining binding at 0.1 µM: 80%
[1]; 1000 nM
  remaining binding at 1 µM: 68%
[2]; 100 nM
  remaining binding at 0.1 µM: 74%
[2]; 1000 nM
  remaining binding at 1 µM: 100%
[3]; 100 nM
  remaining binding at 0.1 µM: 100%
[3]; 1000 nM
  remaining binding at 1 µM: 100%
[4]; 100 nM
  remaining binding at 0.1 µM: 72%
[4]; 1000 nM
  remaining binding at 1 µM: 95%
[5]; 100 nM
  remaining binding at 0.1 µM: 99%
[5]; 1000 nM
  remaining binding at 1 µM: 87%
[6]; 100 nM
  remaining binding at 0.1 µM: 95%
[6]; 1000 nM
  remaining binding at 1 µM: 100%
[7]; 100 nM
  remaining binding at 0.1 µM: 96%
[7]; 1000 nM
  remaining binding at 1 µM: 54%
[8]; 100 nM
  remaining binding at 0.1 µM: 93%
[8]; 1000 nM
  remaining binding at 1 µM: 71%
[9]; 100 nM
  remaining binding at 0.1 µM: 100%
[9]; 1000 nM
  remaining binding at 1 µM: 99%
[10]; 100 nM
  remaining binding at 0.1 µM: 100%
[10]; 1000 nM
  remaining binding at 1 µM: 100%
[11]; 100 nM
  remaining binding at 0.1 µM: 99%
[11]; 1000 nM
  remaining binding at 1 µM: 85%
[12]; 100 nM
  remaining binding at 0.1 µM: 94%
[12]; 1000 nM
  remaining binding at 1 µM: 91%
[13]; 100 nM
  remaining binding at 0.1 µM: 100%
[13]; 1000 nM
  remaining binding at 1 µM: 100%
[14]; 100 nM
  remaining binding at 0.1 µM: 100%
[14]; 1000 nM
  remaining binding at 1 µM: 100%
[15]; 100 nM
  remaining binding at 0.1 µM: 89%
[15]; 1000 nM
  remaining binding at 1 µM: 54%
[16]; 100 nM
  remaining binding at 0.1 µM: 92%
[16]; 1000 nM
  remaining binding at 1 µM: 91%
[17]; 100 nM
  remaining binding at 0.1 µM: 96%
[17]; 1000 nM
  remaining binding at 1 µM: 68%
[18]; 100 nM
  remaining binding at 0.1 µM: 100%
[18]; 1000 nM
  remaining binding at 1 µM: 100%
[19]; 100 nM
  remaining binding at 0.1 µM: 100%
[19]; 1000 nM
  remaining binding at 1 µM: 73%
[20]; 100 nM
  remaining binding at 0.1 µM: 85%
[20]; 1000 nM
  remaining binding at 1 µM: 81%
[21]; 100 nM
  remaining binding at 0.1 µM: 100%
[21]; 1000 nM
  remaining binding at 1 µM: 81%
[22]; 100 nM
  remaining binding at 0.1 µM: 90%
[22]; 1000 nM
  remaining binding at 1 µM: 100%
[23]; 100 nM
  remaining binding at 0.1 µM: 100%
[23]; 1000 nM
  remaining binding at 1 µM: 100%
[24]; 100 nM
  remaining binding at 0.1 µM: 82%
[24]; 1000 nM
  remaining binding at 1 µM: 89%
[25]; 100 nM
  remaining binding at 0.1 µM: 95%
[25]; 1000 nM
  remaining binding at 1 µM: 69%
[26]; 100 nM
  remaining binding at 0.1 µM: 100%
[26]; 1000 nM
  remaining binding at 1 µM: 41%
[27]; 100 nM
  remaining binding at 0.1 µM: 77%
[27]; 1000 nM
  remaining binding at 1 µM: 72%
[28]; 100 nM
  remaining binding at 0.1 µM: 100%
[28]; 1000 nM
  remaining binding at 1 µM: 100%
[29]; 100 nM
  remaining binding at 0.1 µM: 100%
[29]; 1000 nM
  remaining binding at 1 µM: 100%
[30]; 100 nM
  remaining binding at 0.1 µM: 74%
[30]; 1000 nM
  remaining binding at 1 µM: 73%
[31]; 100 nM
  remaining binding at 0.1 µM: 93%
[31]; 1000 nM
  remaining binding at 1 µM: 83%
[32]; 100 nM
  remaining binding at 0.1 µM: 100%
[32]; 1000 nM
  remaining binding at 1 µM: 98%
[33]; 100 nM
  remaining binding at 0.1 µM: 88%
[33]; 1000 nM
  remaining binding at 1 µM: 99%
